This note sets out measurements from patent US20170368015A1, “NOVEL COMPOUND AND ANTIVIRAL AGENT CONTAINING SAME AS ACTIVE INGREDIENT” (NATIONAL UNIVERSITY CORPORATION CHIBA UNIVERSITY, priority 2014, published 2017).

In the first test the test system is RS virus. The experiment in a line: Evaluation of anti-RS viral activity (MTT assay kit; viable cell count of RS virus-infected Hep2 cells). The test is classed as cell-based, RS virus (human respiratory syncytial virus). The conditions noted are these: additive amount 80 μM; Hep2 cells, RS virus 1 MOI, cultured 72 hours; DMSO control = 100. The procedure: The aforementioned Compound 1 (No. 150) to Compound 22 (No. 306) were measured for anti-RS viral activity according to the protocol of MTT assay kit (CellTiter-Glo (registered trade name) Assay, Promega Corporation).
In a 96-well plate, Hep2 cells were seeded at 1×10^3 cells per well, and each of compounds in the amount shown in Table 7, and RS virus having an infectivity titer of 1 MOI were added, and cultured for 72 hours, and then a viable cell count was determined. As a control, a well containing DMSO at 25 μM (when the additive amount of the compound is 80 μM) or 5 μM (when the additive amount of the compound is 16 μM) in place of a compound was prepared.
Background: Tetrazolium assays rely on reduction of a dye to a coloured formazan, in cell work by metabolically active cells.
For `COC(=O)[C@@H]1N[C@H](c2cccc([C@H]3N[C@@H](C(=O)OC)[C@H](c4ccccc4)[C@H]3[N+](=O)[O-])c2)[C@H]([N+](=O)[O-])[C@H]1c1ccccc1` [Compound 2, dimethyl 5,5′-(1,3-phenylene) (2R, 2′R, 3S, 3′S, 4R, 4′R, 5R, 5′R)-bis(4-nitro-3-phenylpyrrolidine-2-carboxylate)], the “Survival Rate (%)” value amounted to 332%.

Still in this test, the particulars now being: human respiratory syncytial virus, HEp-2, 72 h, read-out: Survival Rate (%).
In the case of `c1ccc(-c2nnc(-c3ccccc3)o2)cc1` [Compound 21, 2,5-diphenyl-1,3,4-oxadiazole], the viability at 80 µM was 248%.
In the case of `COc1ccc(NCCNc2ccc(OC)cc2)cc1` [Compound 6, N1,N2-bis(4-methoxyphenyl)ethane-1,2-diamine], the viability at 16 µM turned out to be 472%.

The same test, now with this note: human respiratory syncytial virus, HEp-2; additive amount 16 μM; Hep2 cells, RS virus 1 MOI, cultured 72 hours; DMSO control = 100; read-out: Survival Rate (%).
As to `c1ccc(NCCNc2ccccc2)cc1` [Compound 5, N1,N2-diphenylethane-1,2-diamine], the viability at 16 µM turned out to be 471%.
With `Cc1ccc([C@@H]2[C@@H](C(=O)OC(C)(C)C)N[C@H](c3ccccc3)[C@@]23C(=O)Nc2ccccc23)cc1` [Compound 13, tert-butyl(2′R,3R,4′S,5′S)-2-oxo-2′-phenyl-4′-(p-tolyl)spiro[indoline-3,3′-pyrrolidine]-5′-carboxylate], the viability at 16 µM was determined as 406%.
For `C=CCN1C(=O)/C(=C/[N+](=O)[O-])c2ccccc21` [Compound 14, (E)-1-allyl-3-(nitromethylene)indoline-2-one], the viability at 16 µM turned out to be 409%.
The same measure, in the same setting: under `CCOC(=O)C1=CN2C(=O)CCN2[C@@H]1C1CCCCC1` [Compound 19, ethyl(R)-1-cyclohexyl-5-oxo-6,7-dihydro-1H,5H-pyrazolo[1,2-a]pyrazole-2-carboxylate] stands 209%; under `CC(C)(C)OC(=O)[C@H]1N[C@H](c2ccccc2)[C@@]2(C(=O)Nc3ccccc32)[C@@H]1c1ccc(Br)cc1` [Compound 12, tert-butyl(2′R,3R,4′S,5′S)-4′-(4-bromophenyl)-2-oxo-2′-phenylspiro[indoline-3,3′-pyrrolidine]-5′-carboxylate], 475%.
Same read-out and setting: the result for `Clc1ccc(NCCNc2ccc(Cl)cc2)cc1` [Compound 7, N1,N2-bis(4-chlorophenyl)ethane-1,2-diamine] reads 405%.
In the case of `Oc1c(Br)cc(Br)cc1/C=N/[C@H](c1ccccc1)[C@@H](c1ccccc1)N1Cc2ccccc2C1` [Compound 15, 2,4-dibromo-6-((E)-(((1R,2R)-2-(isoindoline-2-yl)-1,2-diphenylethyl)imino)methyl)phenol], the viability at 16 µM is 393%.
The same measure, in the same setting: under `O=C1CCCCCC1C(Nc1ccc(OC(F)(F)F)cc1)c1ccccc1` (stereo not drawn) [Compound 16, 2-(phenyl((4-(trifluoromethoxy)phenyl)amino)methyl)cycloheptane-1-one] stands 294%.
In the case of `O=P12c3ccccc3CN1[C@H](CNc1ccccc1)CCN2c1ccccc1` (stereo partly drawn) [Compound 8, (4S,11R)-1-phenyl-4-((phenylamino)methyl)-1,2,3,4,6-pentahydrobenzo[3,4][1,2]azaphosphoro [1,2-a][1,3,2]diazaphosphinine 11-oxide], the viability at 16 µM was found to be 815%.
Still for that read-out and setting: the result for `c1ccc(CN2[C@H](c3cccc([C@@H]4N[C@@H](c5ccccc5)[C@H](c5ccccc5)N4Cc4ccccc4)n3)N[C@@H](c3ccccc3)[C@@H]2c2ccccc2)cc1` [Compound 11, 2,6-bis((2R,4S,5S)-1-benzyl-4,5-diphenylimidazolidine-2-yl)pyridine] reads 274%.
On the same count and under the same terms, the result for `Cc1ccc2c(c1)[C@](C[N+](=O)[O-])(c1c[nH]c3c(C)cccc13)C(=O)N2C` [Compound 10, (S)-1,5-dimethyl-3-(7-methyl-1H-indole-3-yl)-3-(nitromethyl)indoline-2-one] reads 294%.

Staying with this test, now noted: human respiratory syncytial virus, HEp-2; additive amount 80 μM; Hep2 cells, RS virus 1 MOI, cultured 72 hours; DMSO control = 100; read-out: Survival Rate (%).
On to `N[C@@H](C(=O)O)c1cccc2ccccc12` [Compound 4, (R)-2-amino-2-(naphthalene-1-yl) acetic acid], for which the viability at 80 µM amounted to 450%.
Turning to `CCOC(=O)C1=CN2C(=O)CCN2[C@@H]1c1cccc(Cl)c1` [Compound 17, ethyl(R)-1-(3-chlorophenyl)-5-oxo-6,7-dihydro-1H,5H-pyrazolo[1,2-a]pyrazole-2-carboxylate], the viability at 80 µM turned out to be 264%.
Same read-out and setting: under `CCOC(=O)C1=CN2C(=O)CC(C)(C)N2C1c1ccccc1` (stereo not drawn) [Compound 22, ethyl7,7-dimethyl-5-oxo-1-phenyl-6,7-dihydro-1H,5H-pyrazolo[1,2-a]pyrazole-2-carboxyl ate] stands 339%; under `COC(=O)[C@H]1N[C@@H](c2ccccc2)[C@@H]([N+](=O)[O-])[C@@H]1c1ccccc1` [Compound 20, methyl(2S,3R,4S,5S)-4-nitro-3,5-diphenylpyrrolidine-2-carboxylate], 344%.
With `CN1C(=O)[C@@](C[N+](=O)[O-])(c2c[nH]c3ccccc23)c2ccccc21` [Compound 9, (S)-3-(1H-indole-3-yl)-1-methyl-3-(nitromethyl)indoline-2-one], the viability at 80 µM was 276%.
On the same count and under the same terms, the result for `COC(=O)C1=C(c2ccccc2)C(c2ccccc2)(C(C#N)C#N)C(C(=O)OC)=C1O` (stereo not drawn) [Compound 1, dimethyl 5-(dicyanomethyl)-2-hydroxy-4,5-diphenylcyclopenta-1,3-diene-1,3-dic arboxylate] reads 359%.
Same read-out and setting: the result for `CCOC(=O)C1=CN2C(=O)CCN2[C@@H]1c1ccc(OC)cc1` [Compound 18, ethyl(R)-1-(4-methoxyphenyl)-5-oxo-6,7-dihydro-1H,5H-pyrazolo[1,2-a]pyrazole-2-carboxylate] reads 349%.
